Measurements as given in patent publication EP1203584A1 (priority 2000, dated 2002).

Tests used:
Format in all cases: in vivo, Male Wistar rats
[1] = system: levels of acetylcholine in the cerebral cortex (frontal area), in the hippocampus and in the corpus striatum; assay: Levels of acetylcholine in rat brain areas after 1 week of treatment
[2] = molecular target: T1, acetylcholinesterase (AChE) (Rattus norvegicus, UniProt P37136); assay: Activity of acetylcholinesterase in treated rats; details: choline alfoscerate alone, 150 mg/kg
T1 construct: Male Wistar rats were divided into 5 groups; from tissue; host or cells: Male Wistar rats
T1 sequence (P37136 32-614): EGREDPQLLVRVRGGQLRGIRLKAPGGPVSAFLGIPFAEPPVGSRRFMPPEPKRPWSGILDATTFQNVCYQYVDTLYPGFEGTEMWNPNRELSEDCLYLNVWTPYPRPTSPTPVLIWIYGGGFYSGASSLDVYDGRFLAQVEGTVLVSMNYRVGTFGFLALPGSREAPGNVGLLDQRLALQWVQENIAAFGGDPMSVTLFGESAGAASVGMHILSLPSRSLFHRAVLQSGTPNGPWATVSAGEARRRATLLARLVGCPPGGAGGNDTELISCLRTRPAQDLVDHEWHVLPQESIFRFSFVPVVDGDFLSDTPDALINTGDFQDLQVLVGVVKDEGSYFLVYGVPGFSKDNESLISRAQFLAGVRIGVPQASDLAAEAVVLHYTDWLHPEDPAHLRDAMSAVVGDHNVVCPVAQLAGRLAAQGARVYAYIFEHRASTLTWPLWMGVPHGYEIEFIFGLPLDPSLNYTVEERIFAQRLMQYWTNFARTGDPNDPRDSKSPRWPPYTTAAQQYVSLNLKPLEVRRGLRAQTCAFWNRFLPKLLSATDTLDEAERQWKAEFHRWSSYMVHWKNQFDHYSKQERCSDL

[3] = system: immunoreactivity of the neuronal acetylcholine in the neurones of the magnocellular nucleus basalis (MNB) and in the corpus striatum; assay: Immunoreactivity of neuronal acetylcholine in MNB and corpus striatum neurones

| Compound | release of acetylcholine ([1]; 150 mg/kg choline alfoscerate, hippocampus and corpus striatum, reason for the choice of dose) | increase in the levels of acetylcholine, compared with rivastigmine ([1]; choline alfoscerate alone versus rivastigmine 2.5 mg/kg, frontal cerebral cortex, hippocampus, corpus striatum) | increased the levels of acetylcholine ([1]; choline alfoscerate alone, 150 mg/kg intraperitoneal, 1 week) | effect on the activity of the AChE [2] | immunoreactivity of the acetylcholine ([3]; choline alfoscerate alone, 150 mg/kg, MNB neurones and interneurones of the corpus striatum, more marked in the MNB) | immunoreactivity of the acetylcholine ([3]; rat, in vivo, 2.5 mg/kg) |
| --- | --- | --- | --- | --- | --- | --- |
| C[N+](C)(C)CCOP(=O)([O-])OC[C@H](O)CO [choline alfoscerate] | significantly increases | to the same extent as the dosage of the AchE inhibitor, rivastigmine | approximately 20% | did not show any effect | increased in a similar fashion |  |
| CCN(C)C(=O)Oc1cccc([C@H](C)N(C)C)c1 [rivastigmine] |  |  |  |  |  | increased in a similar fashion |
